# Measurements taken from patent US20110195900A1, “PEPTIDIC PTH RECEPTOR AGONISTS” (FERRING B.V., priority 2008, published 2011).
# pEC50: −log10 of the molar value. Read-outs that look alike come from different tables or passages of the source. Non-standard residues stand in square brackets, D forms with d. Residues, ends and D or L forms follow the SMILES beside them. 1Nal = N[C@@H](Cc1cccc2ccccc12)C(=O)O; β3hI = CC[C@H](C)[C@H](N)CC(=O)O; hSer = N[C@@H](CCO)C(=O)O; Nle = CCCC[C@H](N)C(=O)O; Aib = CC(C)(N)C(=O)O; βAla = NCCC(=O)O
# Molecular target: T1, human PTH-1 receptor (Homo sapiens, UniProt Q03431)
# T1 construct: expressed in transfected cells; host or cells: HEK-293
# T1 sequence (Q03431 27-593): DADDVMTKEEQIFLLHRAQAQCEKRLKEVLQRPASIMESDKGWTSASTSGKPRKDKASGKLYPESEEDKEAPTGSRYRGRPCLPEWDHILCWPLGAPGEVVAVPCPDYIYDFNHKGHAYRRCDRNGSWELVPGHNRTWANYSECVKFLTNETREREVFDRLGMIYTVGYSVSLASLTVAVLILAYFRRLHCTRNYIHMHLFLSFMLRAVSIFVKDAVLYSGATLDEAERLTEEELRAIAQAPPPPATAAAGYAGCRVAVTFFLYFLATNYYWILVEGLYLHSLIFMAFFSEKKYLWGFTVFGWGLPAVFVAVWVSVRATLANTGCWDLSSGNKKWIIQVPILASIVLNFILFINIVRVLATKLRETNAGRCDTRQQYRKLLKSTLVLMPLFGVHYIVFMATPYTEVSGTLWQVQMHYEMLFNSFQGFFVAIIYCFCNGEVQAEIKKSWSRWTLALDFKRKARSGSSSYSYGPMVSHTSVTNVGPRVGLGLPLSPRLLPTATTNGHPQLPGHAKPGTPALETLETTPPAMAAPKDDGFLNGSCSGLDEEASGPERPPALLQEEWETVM
# Test: Reporter gene assay (CRE-luciferase) for agonist activity in transiently transfected HEK-293 cells
# Type: cell-based
# Conditions: for hPTHR-2/hPTHR-1: ratio of EC50 values, selectivity for hPTH-1 receptor over hPTH-2 receptor
# Description: Agonist activity of compounds on the human PTH-1 receptor was determined in a reporter gene assay by transiently transfecting HEK-293 cells with plasmids encoding human PTH-1 receptor under control of the SV40 promoter and a luciferase reporter gene under control of cAMP responsive elements (CRE). See Himmler et al, J. Recept. Res. 13 (1993) 79-94, for further guidance on this assay. Transfected cells were exposed to serial dilutions of compounds for 4-5 hours followed by lysis of cells, determination of luciferase activity, and determination of compound efficacies and EC50 values through non-linear regression.
# PTH (1-34) was used as an internal control in each experiment and compounds were tested in at least three independent experiments. To determine selectivity, compounds were tested in luciferase-based transcriptional reporter gene assays expressing the human PTH-2 receptor.
# [1] = Table 3, HEK-293 cells, CRE-luciferase, 4-5 hours exposure, read-out: hPTHR-1 EC50
pEC50 [1],Structure (SMILES),pEC50,selectivity for the hPTH-1 receptor over the hPTH-2 receptor (Table 3),hPTHR-2/hPTHR-1 (Table 3)
,"CCCC[C@H](NC(=O)[C@H](CC(C)C)NC(=O)[C@H](CCC(N)=O)NC(=O)[C@@H](NC(=O)[C@H](CCC(=O)O)NC(=O)[C@H](CO)NC(=O)[C@@H](NC(=O)C(C)(C)N)C(C)C)[C@@H](C)CC)C(=O)N[C@@H](Cc1c[nH]cn1)C(=O)N[C@@H](CC(N)=O)C(=O)N[C@@H](CC(C)C)C(=O)NCC(=O)N[C@@H](CCCCN)C(=O)N[C@@H](Cc1c[nH]cn1)C(=O)N[C@@H](CC(C)C)C(=O)N[C@@H](CC(N)=O)C(=O)NCCC(=O)N[C@@H](CCOC)C(=O)N[C@@H](CCC(=O)O)C(=O)N[C@@H](CCCNC(=N)N)C(=O)N[C@H](C(=O)N[C@@H](CCC(=O)O)C(=O)N[C@@H](Cc1cccc2ccccc12)C(=O)N[C@@H](CC(C)C)C(=O)N[C@@H](CCCNC(=N)N)C(=O)N[C@@H](CCCCN)C(=O)N[C@@H](CC(C)C)C(=O)N[C@@H](CC(C)C)C(=O)N[C@@H](CCC(N)=O)C(=O)N[C@@H](CC(=O)O)C(=O)N[C@H](C(=O)N[C@@H](Cc1c[nH]cn1)C(=O)N[C@@H](CC(N)=O)C(=O)N[C@@H](Cc1ccccc1)C(N)=O)C(C)C)C(C)C [SEQ ID NO: 3, [Aib^1, Nle^8, β-Ala^17, hSer(OMe)^18,1-Nal^23, Leu^27] hPTH (1-34)-NH2] (H-[Aib]VSEIQL[Nle]HNLGKHLN[βAla][hSer](Me)ERVE[1Nal]LRKLLQDVHNF-NH2; N-terminus assumed)",10.22,766 fold,766
,"CCCC[C@H](NC(=O)[C@H](CC(C)C)NC(=O)[C@H](CCC(N)=O)NC(=O)[C@@H](NC(=O)[C@H](CCC(=O)O)NC(=O)[C@H](CO)NC(=O)[C@@H](NC(=O)C(C)(C)N)C(C)C)[C@@H](C)CC)C(=O)N[C@@H](Cc1c[nH]cn1)C(=O)N[C@@H](CO)C(=O)N[C@@H](CC(C)C)C(=O)NCC(=O)N[C@@H](CCCCN)C(=O)N[C@@H](Cc1c[nH]cn1)C(=O)N[C@@H](CC(C)C)C(=O)N[C@@H](CCCCN)C(=O)N[C@@H](CO)C(=O)N[C@H](CC(=O)N[C@@H](CCC(=O)O)C(=O)N[C@@H](CCCNC(=N)N)C(=O)N[C@H](C(=O)N[C@@H](CCC(=O)O)C(=O)N[C@@H](Cc1cccc2ccccc12)C(=O)N[C@@H](CC(C)C)C(=O)N[C@@H](CCCNC(=N)N)C(=O)N[C@@H](CCCCN)C(=O)N[C@@H](CC(C)C)C(=O)N[C@@H](CC(C)C)C(=O)N[C@@H](CCC(N)=O)C(=O)N[C@@H](CCCNC(=N)N)C(=O)N[C@H](C(=O)N[C@@H](Cc1c[nH]cn1)C(=O)N[C@@H](CCC(=O)O)C(=O)N[C@@H](CCC(=O)O)C(N)=O)C(C)C)C(C)C)[C@@H](C)CC [SEQ ID NO: 4, [Aib^1, Nle^8, Ser^10, Lys^16, β-hIle^18,1-Nal^23, Leu^27, Arg^30, Glu^33, Glu^34] hPTH (1-34)-NH2] (H-[Aib]VSEIQL[Nle]HSLGKHLKS[β3hI]ERVE[1Nal]LRKLLQRVHEE-NH2)",10.40,,110
9.68,"CCCC[C@H](NC(=O)[C@H](CO)NC(=O)[C@H](CC(N)=O)NC(=O)[C@H](CC(C)C)NC(=O)[C@H](Cc1c[nH]cn1)NC(=O)[C@H](CCCCN)NC(=O)CNC(=O)[C@H](CC(C)C)NC(=O)[C@H](CC(N)=O)NC(=O)[C@H](Cc1c[nH]cn1)NC(=O)[C@H](CCCC)NC(=O)[C@H](CC(C)C)NC(=O)[C@H](CCC(N)=O)NC(=O)[C@@H](NC(=O)[C@H](CCC(=O)O)NC(=O)[C@H](CO)NC(=O)[C@@H](NC(=O)[C@@H](N)CO)C(C)C)[C@@H](C)CC)C(=O)NCCC(=O)N[C@@H](CCCNC(=N)N)C(=O)N[C@H](C(=O)N[C@@H](CCC(=O)O)C(=O)N[C@@H](Cc1cccc2ccccc12)C(=O)N[C@@H](CC(C)C)C(=O)N[C@@H](CCCNC(=N)N)C(=O)N[C@@H](CCCCN)C(=O)N[C@@H](CCCCN)C(=O)N[C@@H](CC(C)C)C(=O)N[C@@H](CCC(N)=O)C(=O)N[C@@H](CC(=O)O)C(=O)N[C@H](C(=O)N[C@@H](Cc1c[nH]cn1)C(=O)N[C@@H](CC(N)=O)C(=O)N[C@@H](Cc1ccccc1)C(N)=O)C(C)C)C(C)C [SEQ ID NO: 7, [Nle^8,18, β-Ala^19,1-Nal^23] hPTH (1-34)-NH2] (H-SVSEIQL[Nle]HNLGKHLNS[Nle][βAla]RVE[1Nal]LRKKLQDVHNF-NH2)",,,52
9.68,"CCCC[C@H](NC(=O)[C@H](CC(C)C)NC(=O)[C@H](CCC(N)=O)NC(=O)[C@@H](NC(=O)[C@H](CCC(=O)O)NC(=O)[C@H](CO)NC(=O)[C@@H](NC(=O)[C@@H](N)CO)C(C)C)[C@@H](C)CC)C(=O)N[C@@H](Cc1c[nH]cn1)C(=O)N[C@@H](CC(N)=O)C(=O)N[C@@H](CC(C)C)C(=O)NCC(=O)N[C@@H](CCCCN)C(=O)N[C@@H](Cc1c[nH]cn1)C(=O)N[C@@H](CC(C)C)C(=O)N[C@@H](CC(N)=O)C(=O)N[C@@H](CO)C(=O)N[C@H](CC(=O)N[C@@H](CCC(=O)O)C(=O)N[C@@H](CCCNC(=N)N)C(=O)N[C@H](C(=O)N[C@@H](CCC(=O)O)C(=O)N[C@@H](Cc1cccc2ccccc12)C(=O)N[C@@H](CC(C)C)C(=O)N[C@@H](CCCNC(=N)N)C(=O)N[C@@H](CCCCN)C(=O)N[C@@H](CCCCN)C(=O)N[C@@H](CC(C)C)C(=O)N[C@@H](CCC(N)=O)C(=O)N[C@@H](CC(=O)O)C(=O)N[C@H](C(=O)N[C@@H](Cc1c[nH]cn1)C(=O)N[C@@H](CC(N)=O)C(=O)N[C@@H](Cc1ccccc1)C(=O)O)C(C)C)C(C)C)[C@@H](C)CC [SEQ ID NO: 8, [Nle^8, β-hIle^18,1-Nal^23] hPTH (1-34)-OH] (H-SVSEIQL[Nle]HNLGKHLNS[β3hI]ERVE[1Nal]LRKKLQDVHNF-OH)",,,124
,"CCCC[C@H](NC(=O)[C@H](CC(C)C)NC(=O)[C@H](CCC(N)=O)NC(=O)[C@@H](NC(=O)[C@H](CCC(=O)O)NC(=O)[C@H](CO)NC(=O)[C@@H](NC(=O)[C@@H](N)CO)C(C)C)[C@@H](C)CC)C(=O)N[C@@H](Cc1c[nH]cn1)C(=O)N[C@@H](CC(N)=O)C(=O)N[C@@H](CC(C)C)C(=O)NCC(=O)N[C@@H](CCCCN)C(=O)N[C@@H](Cc1c[nH]cn1)C(=O)N[C@@H](CC(C)C)C(=O)N[C@@H](CC(N)=O)C(=O)N[C@@H](CO)C(=O)N[C@H](CC(=O)N[C@@H](CCC(=O)O)C(=O)N[C@@H](CCCNC(=N)N)C(=O)N[C@H](C(=O)N[C@@H](CCC(=O)O)C(=O)N[C@@H](Cc1cccc2ccccc12)C(=O)N[C@@H](CC(C)C)C(=O)N[C@@H](CCCNC(=N)N)C(=O)N[C@@H](CCCCN)C(=O)N[C@@H](CC(C)C)C(=O)N[C@@H](CC(C)C)C(=O)N[C@@H](CCC(N)=O)C(=O)N[C@@H](CC(=O)O)C(=O)N[C@H](C(=O)N[C@@H](Cc1c[nH]cn1)C(=O)N[C@@H](CC(N)=O)C(=O)N[C@@H](Cc1ccccc1)C(=O)O)C(C)C)C(C)C)[C@@H](C)CC [SEQ ID NO: 9, [Nle^8, β-hIle^18,1-Nal^23, Leu^27] hPTH (1-34)-OH] (H-SVSEIQL[Nle]HNLGKHLNS[β3hI]ERVE[1Nal]LRKLLQDVHNF-OH; N-terminus assumed)",9.85,,158
